Source: EP4722213A1, “NITROGEN-CONTAINING FUNCTIONAL GROUP-SUBSTITUTED PYRIDAZINOPYRIDONE DERIVATIVE AND USE THEREOF” (Sichuan Huiyu Pharmaceutical Co., Ltd., priority 2023, dated 2024)
pIC50: −log10 of the molar value. Where a name gives a salt, the structure may show the parent alone.

Biological target: T1, SOS1 (Homo sapiens, UniProt Q07889)
T1 sequence (Q07889 1-1333): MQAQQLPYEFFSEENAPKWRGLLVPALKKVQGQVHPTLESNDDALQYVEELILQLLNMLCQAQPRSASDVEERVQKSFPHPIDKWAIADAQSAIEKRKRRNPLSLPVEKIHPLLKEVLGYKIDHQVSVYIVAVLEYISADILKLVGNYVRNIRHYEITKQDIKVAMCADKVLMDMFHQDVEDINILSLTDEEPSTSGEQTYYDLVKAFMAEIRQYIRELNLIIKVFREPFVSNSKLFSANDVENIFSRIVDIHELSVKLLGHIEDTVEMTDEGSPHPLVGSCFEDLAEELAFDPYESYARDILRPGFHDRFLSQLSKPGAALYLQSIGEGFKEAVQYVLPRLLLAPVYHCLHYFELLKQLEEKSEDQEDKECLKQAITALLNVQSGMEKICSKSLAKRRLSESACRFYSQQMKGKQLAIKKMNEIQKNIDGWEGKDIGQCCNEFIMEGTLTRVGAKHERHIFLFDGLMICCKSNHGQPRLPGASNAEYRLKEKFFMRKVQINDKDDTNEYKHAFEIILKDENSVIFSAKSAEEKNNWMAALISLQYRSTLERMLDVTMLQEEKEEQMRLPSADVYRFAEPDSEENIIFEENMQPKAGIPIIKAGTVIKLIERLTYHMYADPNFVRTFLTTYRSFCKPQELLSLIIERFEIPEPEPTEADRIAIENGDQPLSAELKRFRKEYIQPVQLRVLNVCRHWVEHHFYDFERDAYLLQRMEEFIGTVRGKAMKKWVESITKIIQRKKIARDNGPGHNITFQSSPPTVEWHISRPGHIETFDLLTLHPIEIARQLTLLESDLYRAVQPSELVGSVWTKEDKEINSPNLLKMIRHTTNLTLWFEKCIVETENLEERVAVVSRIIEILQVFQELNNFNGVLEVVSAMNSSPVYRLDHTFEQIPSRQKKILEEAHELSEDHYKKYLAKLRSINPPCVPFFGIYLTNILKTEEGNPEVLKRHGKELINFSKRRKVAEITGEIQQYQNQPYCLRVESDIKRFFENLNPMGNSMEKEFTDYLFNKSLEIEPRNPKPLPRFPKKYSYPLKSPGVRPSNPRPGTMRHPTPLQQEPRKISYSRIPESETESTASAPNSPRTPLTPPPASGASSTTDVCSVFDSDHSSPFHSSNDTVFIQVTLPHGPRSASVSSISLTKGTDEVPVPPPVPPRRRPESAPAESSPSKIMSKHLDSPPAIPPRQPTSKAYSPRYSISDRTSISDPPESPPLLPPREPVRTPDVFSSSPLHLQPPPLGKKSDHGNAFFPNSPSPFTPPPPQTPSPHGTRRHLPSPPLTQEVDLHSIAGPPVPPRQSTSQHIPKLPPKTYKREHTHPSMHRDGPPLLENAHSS
Experiment: biochemical

| SMILES | pIC50 |
| --- | --- |
| Cc1c(C#N)cccc1[C@@H](C)Nc1nnc(N(C)C)c2cc(=O)n(C3CC3)cc12 [Example 39, (R)-3-(1-((6-cyclopropyl-1-(dimethylamino)-7-oxo-6,7-dihydropyrido[3,4-d]pyridazin-4-yl)amino)ethyl)-2-methylbenzonitrile] | 7.62 |
| C[C@@H](Nc1nnc(N2CC3C(C2)C3(C)C)c2cc(=O)n(C3(C)CC3)cc12)c1cccc(C(F)F)c1F (stereo partly drawn) [Example 189, 4-(((R)-1-(3-(difluoromethyl)-2-fluorophenyl)ethyl)amino)-1-(6,6-dimethyl-3-azabicyclo[3.1.0]hexan-3-yl)-6-(1-methylcyclopropyl) pyrido[3,4-d]pyridazin-7(6H)-one] | 8.37 |
| C[C@@H](Nc1nnc(NC2CCN(C)C2)c2cc(=O)n(C3(C)CC3)cc12)c1cccc(C(F)F)c1F (stereo partly drawn) [Example 126, 4-(((R)-1-(3-(difluoromethyl)-2-fluorophenyl)ethyl)amino)-6-(1-methylcyclopropyl)-1-((1-methylpyrrolidin-3-yl)amino)pyrido[3,4 d]pyridazin-7(6H)-one] | 8.03 |
| Cc1c([C@@H](C)Nc2nnc(N3CCN(CC4CC4)CC3)c3cc(=O)n(C4(C)CC4)cc23)cccc1C(F)(F)F [Example 93, (R)-1-(4-(cyclopropylmethyl)piperazin-1-yl)-4-((1-(2-methyl-3-(trifluoromethyl)phenyl)ethyl)amino)-6-(1-methylcyclopropyl) pyrido[3,4-d]pyridazin-7(6H)-one] | 8.27 |
| C[C@@H](Nc1nnc(N2CC(F)(F)C2)c2cc(=O)n(C3(C)CC3)cc12)c1cccc(C(F)F)c1F [Example 22, (R)-1-(3,3-difluoroazetidin-1-yl)-4-((1-(3-(difluoromethyl)-2-fluorophenyl)ethyl)amino)-6-(1-methylcyclopropyl) pyrido[3,4-d]pyridazin-7(6H)-one] | 7.79 |
| C[C@@H](Nc1nnc(N2CCN(C)C(=O)C2)c2cc(=O)n(C3(C)CC3)cc12)c1cccc(C(F)(F)F)c1F [Example 174, (R)-4-((1-(2-fluoro-3-(trifluoromethyl)phenyl)ethyl)amino)-1-(4-methyl-3-oxopiperazin-1-yl)-6-(1-methylcyclopropyl) pyrido[3,4-d]pyridazin-7(6H)-one] | 7.69 |
| C[C@@H](Nc1nnc(N2CCN(CC3CC3)CC2)c2cc(=O)n(C3CC(F)(F)C3)cc12)c1cccc(C(F)F)c1F [Example 107, (R)-6-(3,3-difluorocyclobutyl)-4-((1-(3-(difluoromethyl)-2-fluorophenyl)ethyl)amino)-1-(4-(cyclopropylmethyl)piperazin-1-yl)pyrido[3,4-d]pyridazin-7(6H)-one] | 8.38 |
| CC(=O)N1CCN(c2nnc(N[C@H](C)c3cccc(C(F)F)c3F)c3cn(C4(C)CC4)c(=O)cc23)CC1 [Example 79, (R)-1-(4-acetylpiperazin-1-yl)-4-((1-(3-(difluoromethyl)-2-fluorophenyl)ethyl)amino)-6-(1-methylcyclopropyl)pyrido[3,4-d]pyridazin-7(6H)-one] | 7.90 |
| C[C@@H](Nc1nnc(N2CCN(C3CCCC3)CC2)c2cc(=O)n(C3CC(F)(F)C3)cc12)c1cccc(C(F)F)c1F [Example 106, (R)-6-(3,3-difluorocyclobutyl)-4-((1-(3-(difluoromethyl)-2-fluorophenyl)ethyl)amino)-1-(4-cyclopentylpiperazin-1-yl)pyrido[3,4-d]pyridazin-7(6H)-one] | 8.28 |
| Cc1c(C#N)cccc1[C@@H](C)Nc1nnc(N2CCN(CC3CC3)CC2)c2cc(=O)n(C3CC3)cc12 [Example 102, (R)-3-(1-((6-cyclopropyl-1-(4-(cyclopropylmethyl)piperazin-1-yl)-7-oxo-6,7-dihydropyrido[3,4-d]pyridazin-4-yl)amino)ethyl)-2-methylbenzonitrile] | 7.90 |
| Cc1c(C#N)cccc1[C@@H](C)Nc1nnc(N2CCCC2)c2cc(=O)n(C3(C)CC3)cc12 [Example 45, (R)-2-methyl-3-(1-((6-(1-methylcyclopropyl)-7-oxo-1-(pyrrolidin-1-yl)-6,7-dihydropyrido[3,4-d]pyridazin-4-yl)amino)ethyl)benz onitrile] | 8.21 |
| Cc1c(C#N)cccc1[C@@H](C)Nc1nnc(N2CCN(C)[C@H](C)C2)c2cc(=O)n(N3CC4CCCC4C3)cc12 (stereo partly drawn) [Example 167, 3-((1R)-1-((1-((R)-3,4-dimethylpiperazin-1-yl)-6-(hexahydrocyclopenta[c]pyrrol-2(1H)-yl)-7-oxo-6,7-dihydropyrido[3,4-d]pyridazin-4-yl)amino)ethyl)-2-methylbenzonitrile] | 8.20 |
| C[C@@H](Nc1nnc(N2CCC(F)(F)CC2)c2cc(=O)n(C3CC3)cc12)c1cccc(C(F)F)c1F [Example 19, (R)-6-cyclopropyl-4-((1-(3-(difluoromethyl)-2-fluorophenyl)ethyl)amino)-1-(4,4-difluoropiperidin-1-yl)pyrido[3,4-d]pyridazin-7(6H)-one] | 7.57 |
| Cc1c(C(F)F)cccc1[C@@H](C)Nc1nnc(N2CCN(C(C)C)CC2)c2cc(=O)n(C3CC3)cc12 [Example 211, (R)-6-cyclopropyl-4-((1-(3-(difluoromethyl)-2-methylphenyl)ethyl)amino)-1-(4-isopropylpiperazin-1-yl)pyrido[3,4-d]pyridazin-7(6H)-one] | 8.28 |
| C[C@@H](Nc1nnc(N2CCC3(CCN(C)C3)C2)c2cc(=O)n(C3(C)CC3)cc12)c1cccc(C(F)F)c1F (stereo partly drawn) [Example 183, 4-(((R)-1-(3-(difluoromethyl)-2-fluorophenyl)ethyl)amino)-1-(7-methyl-2,7-diazaspiro[4.4]nonan-2-yl)-6-(1-methylcyclopropyl) pyrido[3,4-d]pyridazin-7(6H)-one] | 8.31 |
| CCN(CC)c1nnc(N[C@H](C)c2cccc(C#N)c2C)c2cn(C3(C)CC3)c(=O)cc12 [Example 71, (R)-3-(1-((1-(diethylamino)-6-(1-methylcyclopropyl)-7-oxo-6,7-dihydropyrido[3,4-d]pyridazin-4-yl)amino)ethyl)-2-methylbenzonitrile] | 7.51 |
| C[C@@H](Nc1nnc(N2CCN(C)CC2)c2cc(=O)n(C3CCOC3)cc12)c1cccc(C(F)F)c1F (stereo partly drawn) [Example 127, 4-(((R)-1-(3-(difluoromethyl)-2-fluorophenyl)ethyl)amino)-1-(4-methylpiperazin-1-yl)-6-(tetrahydrofuran-3-yl)pyrido[3,4-d]pyridazin-7(6H)-one] | 8.17 |
| C[C@@H](Nc1nnc(N2CCN(C)CC2)c2cc(=O)n(C3(C)CC3)cc12)c1cccc(C(F)(F)CO)c1 [Example 226, (R)-4-((1-(3-(1,1-difluoro-2-hydroxyethyl)phenyl)ethyl)amino)-6-(1-methylcyclopropyl)-1-(4-methylpiperazin-1-yl)pyrido[3,4-d]pyridazin-7(6H)-one] | 8.37 |
| C[C@@H](Nc1nnc(N2CCC(F)(F)C2)c2cc(=O)n(C3(C)CC3)cc12)c1cccc(C(F)F)c1F [Example 26, (R)-4-((1-(3-(difluoromethyl)-2-fluorophenyl)ethyl)amino)-1-(3,3-difluoropyrrolidin-1-yl)-6-(1-methylcyclopropyl) pyrido[3,4-d]pyridazin-7(6H)-one] | 7.73 |
| Cc1c(C(F)F)cccc1[C@@H](C)Nc1nnc(N2CCN(C)CC2)c2cc(=O)n(C3(C)CC3)cc12 [Example 213, (R)-4-((1-(3-(difluoromethyl)-2-methylphenyl)ethyl)amino)-6-(1-methylcyclopropyl)-1-(4-methylpiperazin-1-yl)pyrido[3,4-d]pyridazin-7(6H)-one formate] | 8.21 |
| Cc1c([C@@H](C)Nc2nnc(N3CCN(C4CCCC4)CC3)c3cc(=O)n(C4(C)CC4)cc23)cccc1C(F)(F)F [Example 96, (R)-1-(4-cyclopentylpiperazin-1-yl)-4-((1-(2-methyl-3-(trifluoromethyl)phenyl)ethyl)amino)-6-(1-methylcyclopropyl) pyrido[3,4-d]pyridazin-7(6H)-one] | 8.13 |
| Cc1c([C@@H](C)Nc2nnc(N3CC4CC4C3)c3cc(=O)n(C4CC4)cc23)cccc1C(F)(F)F (stereo partly drawn) [Example 56, 1-(3-azabicyclo[3.1.0]hexan-3-yl)-6-cyclopropyl-4-(((R)-1-(2-methyl-3-(trifluoromethyl)phenyl)ethyl)amino)pyr ido[3,4-d]pyridazin-7(6H)-one] | 7.97 |
